Reference: US20100292260A1, “6-VINYL PYRIMIDINE AND PYRIMIDINONE DERIVATIVES AND THE USE THEREOF” (priority 2005, published 2010)
Where two headings read alike, the source gives them in different places.

Assays:
[1] = target: T1, reverse transcriptase containing the mutation Y181I (Human immunodeficiency virus type 1 group M subtype B, UniProt P03366, Y780I); assay: Enzyme test with mutated reverse transcriptase Y181I; assay type: biochemical, HIV-1
T1 construct: cloning the gene of the mutated RT in an expression vector for prokariotic cells; made in house
Procedure: (§1) In a final volume of 25 microlitres the following reagents were mixed: 50 mM Tris-HCl pH 7.5, 0.25 mg/ml BSA, 0.5 mM DTT, 20-50 nM HIV-1 (recombinant) reverse transcriptase, nucleotide substrate dTTP marked radioactively (^3H, 4 Ci/mmol) and nucleic acid (poly(rA)/oligo(dT)). The concentrations of dTTP and poly(rA)/oligo(dT) in standard conditions were 5 μM and 0.5 μM, respectively.
(§2) The reaction mixture is incubated 10 min. at 37° C. and 20 μl are removed and deposited on a GF/C Whatman glass fibre filter measuring 25 mm in diameter. The filters are washed 3 times for 5 min. in 5% trichloroacetic acid and once for 5 min. in absolute alcohol. After being dried, the filters are immersed in a scintillating mixture (Packard) and the acid precipitable radioactivity is measured by a scintillation counter for β-emitting isotopes (Beckman).
(§3) In some experiments, the HIV-1 recombinant reverse transcriptase was substituted by a reverse transcriptase containing the mutations K.103N and Y181I. They were produced by cloning the gene of the mutated RT in an expression vector for prokariotic cells according to the method reported in the literature (Maga G, Amacker M, Ruel N, Hubscher U, Spadari S. Resistance to nevirapine of HIV-1 reverse transcriptase mutants: loss of stabilizing interactions and thermodynamic or steric barriers are induced by different single amino acid substitutions. J Mol Biol. Dec. 19, 1997; 274(5):738-47).
(§4) The dose-response curves obtained by means of samples of enzyme activity in the presence of increasing doses of inhibitor were analysed according to the equation E(%)=Emax/([…], where E(%) is the fraction of enzyme activity that is measurable in the presence of each concentration of inhibitor, Emax is the activity in the absence of an inhibitor, I is the concentration of inhibitor. The ID50 was calculated by analysing data using the GraphPad Prism graphic interpolation programme (for Macintosh).

[2] = target: T2, HIV-1 (recombinant) reverse transcriptase (Human immunodeficiency virus type 1 group M subtype B, UniProt P03366); assay: Enzyme test: reverse transcription reaction in vitro with recombinant RT, wild type; assay type: biochemical
T2 construct: 20-50 nM HIV-1 (recombinant) reverse transcriptase
Procedure: as §1, §2, §4

[3] = target: T3, reverse transcriptase containing the mutation K103N (Human immunodeficiency virus type 1 group M subtype B, UniProt P03366, K702N); assay: Enzyme test with mutated reverse transcriptase K103N; assay type: biochemical, HIV-1
T3 construct: cloning the gene of the mutated RT in an expression vector for prokariotic cells; made in house
Procedure: as §1, §2, §3, §4

HIV-1 mutant Y188L = assay: Inhibition of viral proliferation on culture cells (MT-4, MTT), Y188L mutant; assay type: cell-based; conditions: for EC50: Human immunodeficiency virus 1, read-out: Y188L
Procedure: (§5) The biological activity of the compounds was evaluated on lymphoid cell lines MT-4 against the wild strain of HIV-1 NL4-3. The MT-4 cells were briefly infected with the appropriate HIV-1 or the infection was simulated to determine the cytoxicity, in the presence of different concentrations of potential inhibitor compounds. 5 days after the infection a colorimetric method was used that involves using a tetrazole salt (MTT) to evaluate the number of surviving cells. The mutant IRLL98 HIV-1 contains the following mutations in the coding sequence for RT:M41L, D67N, Y181C, M184V, R211K, T215Y (resistance to NRTI) and the mutations K101Q, Y181C, G190A (resistance to NNRTI). The H1V-1 mutants containing multi-NNRTI mutations, K103N or Y188L as mutants were supplied by the Medical Research Council Centralised Facility for AIDS Reagents, Herfordshire, UK.

[4] = Cytotoxicity in mock-infected MT-4 cells (MTT); assay type: cell-based; conditions: human
Procedure: as §5

[5] = system: wild strain of HIV-1 NL4-3; assay: Inhibition of viral proliferation on culture cells (MT-4, MTT), wild strain; assay type: cell-based
Procedure: as §5

HIV-1 mutant Y181C = assay: Inhibition of viral proliferation on culture cells (MT-4, MTT), Y181C mutant; assay type: cell-based; conditions: for EC50: Human immunodeficiency virus 1, read-out: Y181C
Procedure: as §5

HIV-1 mutant K103N = assay: Inhibition of viral proliferation on culture cells (MT-4, MTT), K103N mutant; assay type: cell-based
Procedure: as §5

[6] = Table 2, enzyme test, read-out: WT
[7] = Human immunodeficiency virus 1, NL43, read-out: NL4-3 wt
[8] = Human immunodeficiency virus 1, read-out: K100N

SMILES | IC50 [1] [µM] | IC50 [2, 6] [µM] | IC50 [3] [µM] | EC50 (HIV-1 mutant Y188L) [µM] | CC50 at 5 days [4] [µM] | EC50 [5, 7] [µM] | EC50 (HIV-1 mutant Y181C) [µM] | EC50 (HIV-1 mutant K103N; [8]) [µM] | activity in cell tests on wild type, in words [5] | activity in cell tests on mutant Y188L, in words (HIV-1 mutant Y188L) | activity in cell tests on mutant Y181C, in words (HIV-1 mutant Y181C) | activity in cell tests on mutant K103N, in words (HIV-1 mutant K103N) | IC50 ([2]; Table 3, enzyme test, read-out: WT) [µM] | EC50 ([5]; Human immunodeficiency virus 1, NL43, read-out: NLA-3wt) [µM] | EC50 (HIV-1 mutant K103N; Human immunodeficiency virus 1, read-out: K103N) [µM] | IC50 ([2]; Table 1, recombinant RT wild type, read-out: ID50 WT) [µM]
Cc1c(C(C)c2c(Cl)cccc2Cl)nc(SCC=Cc2ccc([N+](=O)[O-])cc2)[nH]c1=O (stereo not shown) [Compound 26h] | > 20 | 0.102 | > 20 | – | – | – | – | – | – | – | – | – | – | – | – | –
Cc1c(Cc2c(F)cccc2F)nc(SCC=Cc2ccc([N+](=O)[O-])cc2)[nH]c1=O [Compound 26i] | > 20 | 11.9 | > 20 | > 11.7 | 11.7 | 0.26 | > 11.7 | > 11.7 | – | – | – | – | – | – | – | –
COc1ccc(C=CCSc2nc(Cc3c(F)cccc3F)c(C)c(=O)[nH]2)cc1 [Compound 26l] | > 20 | 0.25 | > 20 | > 3.93 | 3.93 | 0.043 | > 3.93 | > 3.93 | nanomolar and subnanomolar activity | – | – | – | – | – | – | –
Cc1c(C(C)c2c(F)cccc2F)nc(SCC=Cc2ccc([N+](=O)[O-])cc2)[nH]c1=O (stereo not shown) [Compound 26m] | > 20 | 0.283 | > 20 | > 11.3 | > 11.3 | 0.14 | > 11.3 | > 11.3 | – | – | – | – | – | – | – | –
COc1ccc(C=CCSc2nc(C(C)c3c(F)cccc3F)c(C)c(=O)[nH]2)cc1 (stereo not shown) [Compound 26n] | > 20 | 0.292 | 3.7 | 0.07 | > 11.7 | 0.0002 | 0.13 | 0.26 | nanomolar and subnanomolar activity | micromolar and submicromolar activity | micromolar and submicromolar activity | micromolar and submicromolar activity | – | – | – | –
Cc1c(C(C)c2c(F)cccc2F)nc(SCC=Cc2ccc(C#N)cc2)[nH]c1=O (stereo not shown) [Compound 26o] | – | 0.161 | – | > 59.1 | > 59.1 | 0.14 | > 59.1 | > 59.1 | – | – | – | – | – | – | – | –
CCc1c(C(C)c2c(F)cccc2F)nc(SCC=Cc2ccc(OC)cc2)[nH]c1=O (stereo not shown) [Compound 26p] | > 20 | 0.016 | 0.4 | 0.63 | 5.54 | 0.0002 | 0.7 | 1.02 | nanomolar and subnanomolar activity | micromolar and submicromolar activity | micromolar and submicromolar activity | micromolar and submicromolar activity | – | – | – | –
CCc1c(C(C)c2c(F)cccc2F)nc(SCC=Cc2ccc([N+](=O)[O-])cc2)[nH]c1=O (stereo not shown) [Compound 26q] | > 20 | 0.009 | > 20 | 1.94 | 5.75 | 0.0004 | > 5.75 | > 5.75 | nanomolar and subnanomolar activity | – | – | – | – | – | – | –
CCc1c(C(C)c2c(F)cccc2F)nc(SCC=Cc2ccc(C#N)cc2)[nH]c1=O (stereo not shown) [Compound 26r] | – | 0.048 | – | > 27.2 | 27.2 | 0.59 | > 27.2 | > 27.2 | – | – | – | – | – | – | – | –
Cc1c(Cc2c(F)cccc2F)nc(SCC#Cc2ccc([N+](=O)[O-])cc2)[nH]c1=O [Compound 27a, 6-(2,6-Difluorobenzyl)-2-(3-(4-nitrophenyl)-propynylsulfanyl)-5-methylpyrimidine-4(3H)-one] | – | – | – | > 58.6 | > 58.6 | – | > 58.6 | – | – | – | – | – | 0.416 | 40.1 | > 58.6 | –
C=Cc1cc(N(CC)CC)nc(S(C)(=O)=O)n1 [MB3B, reference compound] | > 400 | – | > 400 | – | – | – | – | – | – | – | – | – | – | – | – | 21.3
